Literature values as cited in patent US20180273780A1, “WATER-BASED INK COMPOSITION FOR INK JET RECORDING AND COLORING MATERIAL LIQUID” (Seiko Epson Corporation, priority 2017, published 2018).

| Compound | water-octanol partition coefficient (log P) |
| --- | --- |
| CCCCOCCC(=O)N(C)C [3-butoxy-N,N-dimethylpropanamide] | 0.86 |
| tritrimethylolpropane | 0.97 |
| CCCCCCOCC(O)CO (stereo not drawn) [3-(hexyloxy)-1,2-propanediol] | 1.36 |
| CCCCC(CC)COCCOCCO (stereo not drawn) [diethylene glycol-2-ethylhexyl ether] | 2.4 |
| CCCCOCCOCCO [butyl diglycol] | 0.56 |
| CCCN1CCCC1=O [1-propyl-2-pyrrolidone] | 0.67 |
